Test results reported in patent US8901111B2, “Aryl-substituted heterocyclic urea modulators of fatty acid amide hydrolase” (Janssen Pharmaceutica NV, priority 2009, dated 2014).
Counter-ions that a name gives are not always drawn.

Tests used:
FAAH = target: T1, FAAH (Homo sapiens, UniProt O00519); test: Assay Method 1: FAAH assay, 3H-anandamide hydrolysis in homogenate of cells transfected with human FAAH; format: biochemical; design: expressed in transfected cells; crude homogenate (T84 cell pellets named as alternative); settings: cell homogenate, 3H-AEA 80 nM, 1 h at rt, average of results
T1 sequence (O00519 1-579): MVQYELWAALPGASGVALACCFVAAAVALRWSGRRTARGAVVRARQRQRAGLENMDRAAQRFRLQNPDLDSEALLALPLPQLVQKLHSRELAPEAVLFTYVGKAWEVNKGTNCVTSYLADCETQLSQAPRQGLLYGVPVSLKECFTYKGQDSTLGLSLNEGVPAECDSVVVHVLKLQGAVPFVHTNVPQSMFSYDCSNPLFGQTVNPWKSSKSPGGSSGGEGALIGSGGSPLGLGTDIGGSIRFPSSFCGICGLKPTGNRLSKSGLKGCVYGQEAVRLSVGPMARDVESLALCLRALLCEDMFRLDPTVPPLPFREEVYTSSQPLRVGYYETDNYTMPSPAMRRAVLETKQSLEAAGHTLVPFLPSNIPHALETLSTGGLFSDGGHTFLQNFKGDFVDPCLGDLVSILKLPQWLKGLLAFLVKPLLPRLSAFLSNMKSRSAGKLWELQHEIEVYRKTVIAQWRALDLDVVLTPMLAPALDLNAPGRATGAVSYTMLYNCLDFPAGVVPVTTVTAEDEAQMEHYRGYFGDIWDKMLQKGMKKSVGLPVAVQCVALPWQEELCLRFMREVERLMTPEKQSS
Protocol: A. Transfection of Cells with Human FAAH
(§1) A 10-cm tissue culture dish with a confluent monolayer of SK-N-MC cells was split 2 days (d) prior to transfection. Using sterile technique, the media was removed and the cells were detached from the dish by the addition of trypsin. One fifth of the cells were then placed onto a new 10-cm dish. Cells were grown in a 37° C. incubator with 5% CO2 in Minimal Essential Media Eagle with 10% Fetal Bovine Serum. After 2 d, cells were approximately 80% confluent. These cells were removed from the dish with trypsin and pelleted in a clinical centrifuge. The pellet was re-suspended in 400 μL complete media and transferred to an electroporation cuvette with a 0.4 cm gap between the electrodes. Supercoiled human FAAH cDNA (1 μg) was added to the cells and mixed. The voltage for the electroporation was set at 0.25 kV, and the capacitance was set at 960 After electroporation, the cells were diluted into complete media (10 mL) and plated onto four 10-cm dishes. Because of the variability in the efficiency of electroporation, four different concentrations of cells were plated. The ratios used were 1:20, 1:10, and 1:5, with the remainder of the cells being added to the fourth dish. The cells were allowed to recover for 24 h before adding the selection media (complete media with 600 μg/mL G418). After 10 d, dishes were analyzed for surviving colonies of cells. Dishes with well-isolated colonies were used. Cells from individual colonies were isolated and tested.
(§2) T84 frozen cell pellets or transfected SK-N-MC cells (contents of 1×15 cm culture dishes) were homogenized in 50 mL of FAAH assay buffer (125 mM Tris, 1 mM EDTA, 0.2% Glycerol, 0.02% Triton X-100, 0.4 mM Hepes, pH 9). The assay mixture consisted of 50 μL of the cell homogenate, 10 μL of the test compound, and 40 μL of anandamide [1-^3H-ethanolamine] (^3H-AEA, Perkin-Elmer, 10.3 Ci/mmol), which was added last, for a final tracer concentration of 80 nM. The reaction mixture was incubated at rt for 1 h. During the incubation, 96-well Multiscreen filter plates (catalog number MAFCNOB50; Millipore, Bedford, Mass., USA) were loaded with 25 μL of activated charcoal (Multiscreen column loader, catalog number MACL09625, Millipore) and washed once with 100 μL of MeOH. Also during the incubation, 96-well DYNEX MicroLite plates (catalog number NL510410) were loaded with 100 μL of MicroScint40 (catalog number 6013641, Packard Bioscience, Meriden, Conn., USA). After the 1 h incubation, 60 μL of the reaction mixture were transferred to the charcoal plates, which were then assembled on top of the DYNEX plates using Centrifuge Alignment Frames (catalog number MACF09604, Millipore). The unbound labeled ethanolamine was centrifuged through to the bottom plate (5 min at 2000 rpm), which was preloaded with the scintillant, as described above. The plates were sealed and left at rt for 1 h before counting on a Hewlett Packard TopCount.
(§3) Results for compounds tested in these assays are summarized in Table 1, as an average of results obtained. Compounds were tested in the free base or trifluoroacetic acid salt form. Compounds tested in the trifluoroacetic acid salt form are indicated as such by a “*” designation after the example number. Where activity is shown as greater than (>) a particular value, the value is the solubility limit of the compound in the assay medium or the highest concentration tested in the assay.

rat FAAH = target: T2, rat FAAH (Rattus norvegicus, UniProt P97612); test: Assay Method 2: FAAH assay, 3H-anandamide hydrolysis in homogenate of cells transfected with rat FAAH; format: biochemical; settings: cell homogenate, 3H-AEA 80 nM, 1 h at rt, average of results
T2 construct: expressed in transfected cells; crude homogenate
T2 sequence (P97612 1-579): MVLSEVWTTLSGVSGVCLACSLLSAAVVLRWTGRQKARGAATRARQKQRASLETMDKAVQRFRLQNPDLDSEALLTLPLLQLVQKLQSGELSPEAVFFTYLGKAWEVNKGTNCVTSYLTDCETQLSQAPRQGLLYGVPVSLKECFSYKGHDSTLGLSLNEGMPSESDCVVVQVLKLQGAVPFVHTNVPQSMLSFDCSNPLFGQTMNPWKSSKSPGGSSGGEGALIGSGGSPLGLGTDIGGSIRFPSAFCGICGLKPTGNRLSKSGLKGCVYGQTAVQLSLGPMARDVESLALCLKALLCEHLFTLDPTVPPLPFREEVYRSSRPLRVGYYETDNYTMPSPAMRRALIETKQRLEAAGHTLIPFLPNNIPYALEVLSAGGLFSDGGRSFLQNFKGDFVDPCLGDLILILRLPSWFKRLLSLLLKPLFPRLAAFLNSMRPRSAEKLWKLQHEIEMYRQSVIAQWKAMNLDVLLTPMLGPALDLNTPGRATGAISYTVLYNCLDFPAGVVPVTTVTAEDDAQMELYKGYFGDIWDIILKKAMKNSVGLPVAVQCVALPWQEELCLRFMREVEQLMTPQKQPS
Protocol: A. Transfection of Cells with Rat FAAH
as §1, with “rat” for “human”, “960 μF.” for “960”
as §2, §3

Row | IC50 (FAAH) [µM] | IC50 (rat FAAH) [µM] | Structure (SMILES)
1 | 0.005 | 0.004 | O=C(Nc1cnc2cccnn12)N1CC(CCOc2cccc(Oc3ccc(Cl)cc3)c2)C1 [Example 1, 3-{2-[3-(4-Chloro-phenoxy)-phenoxy]-ethyl}-azetidine-1-carboxylic acid imidazo[1,2-b]pyridazin-3-ylamide]
2 | > 10 | > 10 | O=C(Nc1cccnc1)N1CC(COc2ccccc2)C1 [Example 2, 3-Phenoxymethyl-azetidine-1-carboxylic acid pyridin-3-ylamide, trifluoroacetate salt]
3 | > 10 | > 10 | O=C(Nc1cccnc1)N1CC(COc2ccc(Br)cc2)C1 [Example 3, 3-(4-Bromo-phenoxymethyl)-azetidine-1-carboxylic acid pyridin-3-ylamide]
4 | > 10 | 3 | O=C(Nc1cccnc1)N1CC(COc2ccc(OC(F)(F)F)cc2)C1 [Example 5, 3-(4-Trifluoromethoxy-phenoxymethyl)-azetidine-1-carboxylic acid pyridin-3-ylamide]
5 | 1.1 | 0.175 | O=C(Nc1cccnc1)N1CC(COc2cccc(OC(F)(F)F)c2)C1 [Example 6, 3-(3-Trifluoromethoxy-phenoxymethyl)-azetidine-1-carboxylic acid pyridin-3-ylamide]
6 | > 10 | > 10 | O=C(Nc1cccnc1)N1CC(COc2ccc3c(c2)OCO3)C1 [Example 7, 3-(Benzo[1,3]dioxol-5-yloxymethyl)-azetidine-1-carboxylic acid pyridin-3-ylamide]
7 | 2.4 | 0.62 | O=C(Nc1cccnc1)N1CC(COc2cccc(C(F)(F)F)c2)C1 [Example 8, 3-(3-Trifluoromethyl-phenoxymethyl)-azetidine-1-carboxylic acid pyridin-3-ylamide, trifluoroacetate salt]
8 | 1.3 | 1.3 | O=C(Nc1cccnc1)N1CC(COc2ccc3ccccc3n2)C1 [Example 9, 3-(Quinolin-2-yloxymethyl)-azetidine-1-carboxylic acid pyridin-3-ylamide]
9 | 1.4 | 0.3 | O=C(Nc1cccnc1)N1CC(COc2ccc(C(F)(F)F)c(Cl)c2)C1 [Example 10, 3-(3-Chloro-4-trifluoromethyl-phenoxymethyl)-azetidine-1-carboxylic acid pyridin-3-ylamide]
10 | 0.37 | 1.6 | C#Cc1cccc(OCC2CN(C(=O)Nc3cccnc3)C2)c1 [Example 11, 3-(3-Ethynyl-phenoxymethyl)-azetidine-1-carboxylic acid pyridin-3-ylamide]
11 | 2.5 | 1.7 | O=C(Nc1cccnc1)N1CC(COc2ccc3c(c2)CCCC3)C1 [Example 13, 3-(5,6,7,8-Tetrahydro-naphthalen-2-yloxymethyl)-azetidine-1-carboxylic acid pyridin-3-ylamide]
12 | > 10 | > 10 | O=C(Nc1cccnc1)N1CC(COc2ccc3cccnc3c2)C1 [Example 14, 3-(Quinolin-7-yloxymethyl)-azetidine-1-carboxylic acid pyridin-3-ylamide]
13 | > 10 | > 10 | O=C(Nc1cccnc1)N1CC(COc2ccc3ncccc3c2)C1 [Example 15, 3-(Quinolin-6-yloxymethyl)-azetidine-1-carboxylic acid pyridin-3-ylamide, trifluoroacetate salt]
14 | > 10 | – | O=C(Nc1cccnc1)N1CC(CCOc2ccc(OC(F)(F)F)cc2)C1 [Example 30, 3-[2-(4-Trifluoromethoxy-phenoxy)-ethyl]-azetidine-1-carboxylic acid pyridin-3-ylamide]
15 | 6 | – | O=C(Nc1cccnc1)N1CCC(CCOc2ccc(Cl)c(Cl)c2)C1 (stereo not shown) [Example 53, 3-[2-(3,4-Dichloro-phenoxy)-ethyl]-pyrrolidine-1-carboxylic acid pyridin-3-ylamide]
16 | 1.3 | – | O=C(Nc1cnccc1Cl)N1CCC(CCOc2ccc(OC(F)(F)F)cc2)C1 (stereo not shown) [Example 62, 3-[2-(4-Trifluoromethoxy-phenoxy)-ethyl]-pyrrolidine-1-carboxylic acid (4-chloro-pyridin-3-yl)-amide]
17 | – | > 10 | O=C(Nc1cccnc1)N1CC(CCOCc2ccccc2)C1 [Example 69, 3-(2-Benzyloxy-ethyl)-azetidine-1-carboxylic acid pyridin-3-ylamide]
18 | 0.936 | – | O=C(Nc1cnccc1Cl)N1CC(CCOCc2ccccc2)C1 [Example 70, 3-(2-Benzyloxy-ethyl)-azetidine-1-carboxylic acid (4-chloropyridin-3-yl)-amide]
19 | > 10 | – | O=C(Nc1cccc2nonc12)N1CCC(Cc2ccc3c(c2)OC(F)(F)O3)C1 (stereo not shown) [Example 73, N-2,1,3-Benzoxadiazol-4-yl-3-[(2,2-difluoro-1,3-benzodioxol-5-yl)methyl]pyrrolidine-1-carboxamide]

Row | Structure (SMILES) | IC50 (FAAH) [µM] | IC50 (rat FAAH) [µM]
20 | CCCCOc1cccc(OCC2CN(C(=O)Nc3cccnc3)C2)c1 [Example 12, 3-(3-Butoxy-phenoxymethyl)-azetidine-1-carboxylic acid pyridin-3-ylamide] | 0.3 | > 10
